Drawing on patent US20220204498A1, “PYRIDO-PYRIMIDINYL COMPOUNDS AND METHODS OF USE” (Genentech, Inc., priority 2019, published 2022), this text covers IC50 for 23 compounds.

Counter-ions that a name gives are not always drawn.

T1 sequence (O75460 547-977 D688N): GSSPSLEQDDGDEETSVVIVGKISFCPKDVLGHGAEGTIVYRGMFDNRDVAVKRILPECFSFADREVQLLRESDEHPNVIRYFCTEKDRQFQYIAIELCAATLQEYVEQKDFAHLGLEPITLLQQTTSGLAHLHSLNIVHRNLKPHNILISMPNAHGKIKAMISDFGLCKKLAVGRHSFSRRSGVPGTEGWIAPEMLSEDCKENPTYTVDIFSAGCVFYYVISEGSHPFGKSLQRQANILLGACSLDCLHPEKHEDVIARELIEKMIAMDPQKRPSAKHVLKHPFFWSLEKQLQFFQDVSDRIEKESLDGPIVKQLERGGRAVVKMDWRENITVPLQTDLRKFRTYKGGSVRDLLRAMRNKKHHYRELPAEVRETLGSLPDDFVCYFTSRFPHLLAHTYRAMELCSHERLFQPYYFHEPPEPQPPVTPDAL

This experiment concerns the target T1, IRE1α (Homo sapiens, UniProt O75460, D688N).
T1 construct: containing the kinase and RNase domains (KR, AA G547-1L977, D688N); made in house; host or cells: Sf9 insect cells
Kind of experiment: IRE1α TR-FRET competition binding assay (IRE1α HTRF). The settings on record: His-tagged IRE1α kinase dead construct (KR, D688N) 0.25 nM; Alexa fluor 647-labeled ATP competitive probe 2 nM; one hour at room temperature; read-out: IRE1α (alpha) HTRF (IC50). How it is done:
Example 59. IRE1α TR-FRET Competition Binding Assay
To determine the affinity of compound binding to the kinase domain of IRE1α, a time-resolved fluorescence resonance energy transfer (TR-FRET) competition assay was used.
A His-tagged IRE1α kinase dead construct containing the kinase and RNase domains (KR, AA G547-1L977, D688N) was expressed in Sf9 insect cells. The purified protein (final concentration 0.25 nM) was pre-incubated with anti-His Europium labeled antibody (Life Technologies PV5596, final concentration 2 nM) for one hour at 4° C. in TR-FRET Assay Buffer (50 mM HEPES, pH 7.5, 10 mM MgCl2, 0.083 mM Brij 35, 1 mM DTT, and 0.1% bovine gamma globulin) prior to addition to test compounds. An Alexa fluor 647-labeled probe based on an ATP competitive inhibitor was added to a final concentration of 2 nM. Reactions were carried out for one hour at room temperature in a final volume of 20 μL in 384 well white ProxiPlates (Perkin Elmer 6008289). Binding of the probe to the IRE1α protein was detected in an Envision instrument (PerkinElmer) equipped with a TRF laser option and a LANCE/Delfia Dual/Bias D400/D630 mirror (Ex 347 nm, 1st Em 665 nm, 2nd Em 615 nm).
For orientation: In TR-FRET formats the signal depends on donor and acceptor labels being close together.
For the compound `Cc1cc(-c2ccc(NS(=O)(=O)Cc3ccc(C#N)cc3)c(F)c2)nc2cnc(N[C@@H]3CNC[C@@H](F)C3)nc12` [Compound 116, 1-(4-Cyanophenyl)-N-(2-fluoro-4-(2-(((3S,5S)-5-fluoropiperidin-3-yl)amino)-8-methylpyrido[3,2-d]pyrimidin-6-yl)phenyl)methanesulfonamide formate], the IC50 was found to be 0.13 nM.

For the compound `O=S(=O)(Cc1ccc(F)cc1)Nc1ccc(-c2cc(C(F)F)c3nc(N[C@@H]4CNC[C@@H](F)C4)ncc3n2)cc1F` [Compound 139, N-[4-[8-(Difluoromethyl)-2-[[(3S,5S)-5-fluoro-3-piperidyl]amino]pyrido[3,2-d]pyrimidin-6-yl]-2-fluoro-phenyl]-1-(4-fluorophenyl)methanesulfonamide hydrochloride], the IC50 worked out at 0.23 nM.

Consider `Cc1cc(-c2ccc(NS(=O)(=O)c3ccccc3C#N)c(F)c2)nc2cnc(N[C@H]3CC[C@H](N(C)C)CC3)nc12` [Compound 150, 2-Cyano-N-[(1,4-trans)-4-[2-[[4-(dimethylamino)cyclohexyl]amino]-8-methyl-pyrido[3,2-d]pyrimidin-6-yl]-2-fluoro-phenyl]benzenesulfonamide], for which the 50% inhibitory concentration (IC50) was 0.15 nM.

Consider `CCc1cc(-c2ccc(NS(=O)(=O)c3ccccc3F)nc2C)nc2cnc(N[C@H]3CC[C@H](N(C)C)CC3)nc12` [Compound 146, N-(5-(2-(((1,4-trans)-4-(dimethylamino)cyclohexyl)amino)-8-ethylpyrido[3,2-d]pyrimidin-6-yl)-6-methylpyridin-2-yl)-2-fluorobenzenesulfonamide], for which the IC50 was 0.21 nM.

As for `CCC(F)(F)CS(=O)(=O)Nc1ccc(-c2cc(C)c3nc(N[C@H]4CC[C@H](N(C)C)CC4)ncc3n2)cc1F` [Compound 117, N-(4-(2-(((1,4-trans)-4-(Dimethylamino)cyclohexyl)amino)-8-methylpyrido[3,2-d]pyrimidin-6-yl)-2-fluorophenyl)-2,2-difluorobutane-1-sulfonamide formate], the IC50 worked out at 0.11 nM.

As to `Cc1cc(-c2ccc(NS(=O)(=O)Cc3ccccc3)c(F)c2)nc2cnc(N[C@@H]3CNC[C@@H](F)C3)nc12` [Compound 106, N-(2-Fluoro-4-(2-(((3S,5S)-5-fluoropiperidin-3-yl)amino)-8-methylpyrido[3,2-d]pyrimidin-6-yl)phenyl)-1-phenylmethanesulfonamide], the IC50 worked out at 0.3 nM.

For the compound `Cc1nc(NS(=O)(=O)CCC(F)(F)F)ccc1-c1cc(C)c2nc(N[C@H]3CC[C@H](N(C)C)CC3)ncc2n1` [Compound 126, N-(5-(2-(((1,4-trans)-4-(Dimethylamino)cyclohexyl)amino)-8-methylpyrido[3,2-d]pyrimidin-6-yl)-6-methylpyridin-2-yl)-3,3,3-trifluoropropane-1-sulfonamide], the IC50 came out at 18 nM.

With `CCc1cc(-c2ccc(NS(=O)(=O)c3ccccc3Cl)nc2C)nc2cnc(N[C@H]3CC[C@H](N(C)C)CC3)nc12` [Compound 134, 2-Chloro-N-(5-(2-(((1,4-trans)-4-(dimethylamino)cyclohexyl)amino)-8-ethylpyrido[3,2-d]pyrimidin-6-yl)-6-methylpyridin-2-yl)benzenesulfonamide], the IC50 was found to be 0.33 nM.

As for `Cc1nc(NS(=O)(=O)c2ccccc2C#N)ccc1-c1cc(C)c2nc(N[C@H]3CC[C@H](N(C)C)CC3)ncc2n1` [Compound 159, 2-Cyano-N-(5-(2-(((1,4-trans)-4-(dimethylamino)cyclohexyl)amino)-8-methylpyrido[3,2-d]pyrimidin-6-yl)-6-methylpyridin-2-yl)benzenesulfonamide], the IC50 is 0.33 nM.

Take `Cc1nc(NS(=O)(=O)c2ccccc2Cl)ccc1-c1cc(C)c2nc(N[C@@H]3CNC[C@@H](F)C3)ncc2n1` [Compound 136, 2-Chloro-N-(5-(2-(((3S,5S)-5-fluoropiperidin-3-yl)amino)-8-methylpyrido[3,2-d]pyrimidin-6-yl)-6-methylpyridin-2-yl)benzenesulfonamide]: the IC50 was 14 nM.

Turning to `Cc1cc(-c2ccc(NS(=O)(=O)Cc3ccc(F)cc3F)c(F)c2)nc2cnc(N[C@@H]3CNC[C@@H](F)C3)nc12` [Compound 115, 1-(2,4-Difluorophenyl)-N-(2-fluoro-4-(2-(((3S,5S)-5-fluoropiperidin-3-yl)amino)-8-methylpyrido[3,2-d]pyrimidin-6-yl)phenyl)methanesulfonamide], the IC50 was 0.26 nM.

Consider `Cc1cc(-c2ccc(NS(=O)(=O)Cc3ccc(F)cc3)c(F)c2F)nc2cnc(N[C@H]3CC[C@H](N(C)C)CC3)nc12` [Compound 132, N-(4-(2-(((1,4-trans)-4-(Dimethylamino)cyclohexyl)amino)-8-methylpyrido[3,2-d]pyrimidin-6-yl)-2,3-difluorophenyl)-1-(4-fluorophenyl)methanesulfonamide], for which the IC50 was 0.23 nM.

On to `Cc1cc(-c2ccc(NS(=O)(=O)Cc3ccc(F)cc3)c(F)c2)nc2cnc(N[C@@H]3CNC[C@@H](F)C3)nc12` [Compound 121, N-(2-Fluoro-4-(2-(((3S,5S)-5-fluoropiperidin-3-yl)amino)-8-methylpyrido[3,2-d]pyrimidin-6-yl)phenyl)-1-(4-fluorophenyl)methanesulfonamide formate], for which the IC50 amounted to 0.27 nM.

As for `Cc1nc(NS(=O)(=O)c2ccccc2Cl)ccc1-c1cc(C(F)F)c2nc(N[C@H]3CC[C@H](N(C)C)CC3)ncc2n1` [Compound 145, 2-Chloro-N-[5-[8-(difluoromethyl)-2-[[(1,4-trans)-4-(dimethylamino)cyclohexyl]amino]pyrido[3,2-d]pyrimidin-6-yl]-6-methyl-2-pyridyl]benzenesulfonamide], the IC50 was 0.25 nM.

For `O=S(=O)(Cc1ccccc1)Nc1ccc(-c2cnc3nc(N[C@@H]4CNC[C@@H](F)C4)ncc3c2)cc1F` [Compound 109, N-(2-Fluoro-4-(2-(((3S,5S)-5-fluoropiperidin-3-yl)amino)pyrido[2,3-d]pyrimidin-6-yl)phenyl)-1-phenylmethanesulfonamide], the IC50 amounted to 5.7 nM.

For `CN(C)[C@H]1CC[C@H](Nc2ncc3nc(-c4ccc(NS(=O)(=O)CCC(F)(F)F)c(F)c4)cc(C(F)F)c3n2)CC1` [Compound 144, N-[(1,4-trans)-4-[8-(Difluoromethyl)-2-[[4-(dimethylamino)cyclohexyl]amino]pyrido[3,2-d]pyrimidin-6-yl]-2-fluoro-phenyl]-3,3,3-trifluoro-propane-1-sulfonamide], the IC50 turned out to be 0.16 nM.

On to `CCc1cc(-c2ccc(NS(=O)(=O)Cc3ccc(S(C)(=O)=O)cc3)c(F)c2)nc2cnc(N[C@H]3CC[C@H](N(C)C)CC3)nc12` [Compound 152, N-(4-(2-(((1,4-trans)-4-(Dimethylamino)cyclohexyl)amino)-8-ethylpyrido[3,2-d]pyrimidin-6-yl)-2-fluorophenyl)-1-(4-(methylsulfonyl)phenyl)methanesulfonamide], for which the IC50 was 0.12 nM.

In the case of `O=S(=O)(Cc1ccccc1)Nc1ccc(-c2cc3cnc(N[C@@H]4CNC[C@@H](F)C4)nc3cn2)cc1F` [Compound 101, N-(2-Fluoro-4-(2-(((3S,5S)-5-fluoropiperidin-3-yl)amino)pyrido[3,4-d]pyrimidin-6-yl)phenyl)-1-phenylmethanesulfonamide], the IC50 worked out at 3 nM.

As for `CCc1cc(-c2ccc(NS(=O)(=O)c3ccccc3OC(F)F)nc2C)nc2cnc(N[C@H]3CC[C@H](N(C)C)CC3)nc12` [Compound 148, 2-(Difluoromethoxy)-N-(5-(2-(((1,4-trans)-4-(dimethylamino)cyclohexyl)amino)-8-ethylpyrido[3,2-d]pyrimidin-6-yl)-6-methylpyridin-2-yl)benzenesulfonamide], the IC50 came out at 0.51 nM.

With `Cc1cc(-c2cc(F)c(NS(=O)(=O)Cc3ccc(F)cc3)c(F)c2F)nc2cnc(N[C@H]3CC[C@H](N(C)C)CC3)nc12` [Compound 153, N-(4-(2-(((1,4-trans)-4-(Dimethylamino)cyclohexyl)amino)-8-methylpyrido[3,2-d]pyrimidin-6-yl)-2,3,6-trifluorophenyl)-1-(4-fluorophenyl)methanesulfonamide], the IC50 was determined as 0.16 nM.

Consider `Cc1cc(-c2cc(F)c(NS(=O)(=O)c3ccccc3Cl)c(F)c2F)nc2cnc(N[C@H]3CC[C@H](N(C)C)CC3)nc12` [Compound 155, 2-Chloro-N-(4-(2-(((1,4-trans)-4-(dimethylamino)cyclohexyl)amino)-8-methylpyrido[3,2-d]pyrimidin-6-yl)-2,3,6-trifluorophenyl)benzenesulfonamide], for which the IC50 stood at 0.19 nM.

As to `CN(C)[C@H]1CC[C@H](Nc2ncc3nc(-c4ccc(NS(=O)(=O)Cc5ccc(F)cc5)c(F)c4)cc(CF)c3n2)CC1` [Compound 130, N-[4-[2-[[(1,4-trans)-4-(Dimethylamino)cyclohexyl]amino]-8-(fluoromethyl)pyrido[3,2-d]pyrimidin-6-yl]-2-fluoro-phenyl]-1-(4-fluorophenyl)methanesulfonamide], the IC50 was 0.2 nM.

On to `Cc1cc(-c2ccc(NC(=O)CC(C)C)c(F)c2)nc2cnc(N[C@H]3CC[C@H](N(C)C)CC3)nc12` [Compound 127, N-(4-(2-(((1,4-trans)-4-(Dimethylamino)cyclohexyl)amino)-8-methylpyrido[3,2-d]pyrimidin-6-yl)-2-fluorophenyl)-3-methylbutanamide], for which the IC50 is 140 nM.

One may read the IC50 as the concentration needed to halve the response being measured.
